One may read the IC50 as the point on the concentration scale where inhibition reaches its midpoint. Low values mean inhibition by little substance, high ones a need for much substance.

In one assay the test system is Dd2 SC83288 resistant. The assay is described as follows: Growth inhibition assay. The format is cell-based. The note with it: Plasmodium falciparum. As for the experimental part: (§1) To identify the mode of action/mechanism of resistance of SC81458 and […], a chemogenomic approach was used, whereby resistant parasites were obtained by in vitro drug pressure selection and subjected to whole-genome sequencing to identify the genetic basis of resistance. Three independent selections of Dd2 parasites at an initial population of 10^10 infected red blood cells (performed in 150 ml flasks, 2% haematocrit) were subjected to SC81458 or SC83288 at a starting concentration of 50 nM. […] Drug resistance was confirmed by measuring the IC50s, after two consecutive cycles in absence of the drug, using a SYBRGreen growth inhibition assay as previously described. After up to 200 days of drug pressure, the drug-resistant lines were clones by limiting dilution for single-cell isolation and genomic DNA was extracted using the DNeasy Blood&Tissue kit (Qiagen, USA) and subjected to ultra-deep sequencing.

A further assay relates to Dd2 SC81458 resistant. The assay is described as follows: Growth inhibition assay. It counts as cell-based. The note with it: Plasmodium falciparum. Here is the method: as §1
Assay [1] relates to Dd2 P. falciparum parasites. The assay is described as follows: In vitro parasite reduction ratio assay (Sanz protocol). It counts as cell-based, Plasmodium falciparum.
For the next assay, the system named is P. falciparum strain Dd2. The assay is described as follows: Growth inhibition assay, asexual blood stages. The note with it: Plasmodium falciparum, DD2, Dd2, Supplementary Table 11. It counts as cell-based, Plasmodium falciparum.

Some results are limits rather than exact numbers.

`O=C1C(O)=C([C@H]2CC[C@H](c3ccc(Cl)cc3)CC2)C(=O)c2ccccc21` [atovaquone, reference compound]: the half-inhibitory concentration (IC50) in the assay on Dd2 SC83288 resistant turned out to be 0.8 ± 0.1 nM; in the assay on Dd2 SC81458 resistant it was 0.3 ± 0.1 nM; with P. falciparum strain Dd2, 0.6 ± 0.1 nM. The “In vitro PCT99.9%” value in assay [1] (10 times IC50, Dd2) stood at 89 ± 7 h. For the same compound, the “In vitro lag phase” value in assay [1] (10 times IC50, Dd2) is reported as greater than 24 h. Further, the “In vitro logPRR” value in assay [1] (10 times IC50, Dd2, over 48 h) was 2.1±0.4.

Values taken from article PMC5290327, “SC83288 is a clinical development candidate for the treatment of severe malaria” (Nature Communications, 2017).
